A word on the IC50: it is the concentration that gives 50% inhibition. Read a high IC50 as weaker potency.

Sequence of human ACC2 (O00763 129-2458): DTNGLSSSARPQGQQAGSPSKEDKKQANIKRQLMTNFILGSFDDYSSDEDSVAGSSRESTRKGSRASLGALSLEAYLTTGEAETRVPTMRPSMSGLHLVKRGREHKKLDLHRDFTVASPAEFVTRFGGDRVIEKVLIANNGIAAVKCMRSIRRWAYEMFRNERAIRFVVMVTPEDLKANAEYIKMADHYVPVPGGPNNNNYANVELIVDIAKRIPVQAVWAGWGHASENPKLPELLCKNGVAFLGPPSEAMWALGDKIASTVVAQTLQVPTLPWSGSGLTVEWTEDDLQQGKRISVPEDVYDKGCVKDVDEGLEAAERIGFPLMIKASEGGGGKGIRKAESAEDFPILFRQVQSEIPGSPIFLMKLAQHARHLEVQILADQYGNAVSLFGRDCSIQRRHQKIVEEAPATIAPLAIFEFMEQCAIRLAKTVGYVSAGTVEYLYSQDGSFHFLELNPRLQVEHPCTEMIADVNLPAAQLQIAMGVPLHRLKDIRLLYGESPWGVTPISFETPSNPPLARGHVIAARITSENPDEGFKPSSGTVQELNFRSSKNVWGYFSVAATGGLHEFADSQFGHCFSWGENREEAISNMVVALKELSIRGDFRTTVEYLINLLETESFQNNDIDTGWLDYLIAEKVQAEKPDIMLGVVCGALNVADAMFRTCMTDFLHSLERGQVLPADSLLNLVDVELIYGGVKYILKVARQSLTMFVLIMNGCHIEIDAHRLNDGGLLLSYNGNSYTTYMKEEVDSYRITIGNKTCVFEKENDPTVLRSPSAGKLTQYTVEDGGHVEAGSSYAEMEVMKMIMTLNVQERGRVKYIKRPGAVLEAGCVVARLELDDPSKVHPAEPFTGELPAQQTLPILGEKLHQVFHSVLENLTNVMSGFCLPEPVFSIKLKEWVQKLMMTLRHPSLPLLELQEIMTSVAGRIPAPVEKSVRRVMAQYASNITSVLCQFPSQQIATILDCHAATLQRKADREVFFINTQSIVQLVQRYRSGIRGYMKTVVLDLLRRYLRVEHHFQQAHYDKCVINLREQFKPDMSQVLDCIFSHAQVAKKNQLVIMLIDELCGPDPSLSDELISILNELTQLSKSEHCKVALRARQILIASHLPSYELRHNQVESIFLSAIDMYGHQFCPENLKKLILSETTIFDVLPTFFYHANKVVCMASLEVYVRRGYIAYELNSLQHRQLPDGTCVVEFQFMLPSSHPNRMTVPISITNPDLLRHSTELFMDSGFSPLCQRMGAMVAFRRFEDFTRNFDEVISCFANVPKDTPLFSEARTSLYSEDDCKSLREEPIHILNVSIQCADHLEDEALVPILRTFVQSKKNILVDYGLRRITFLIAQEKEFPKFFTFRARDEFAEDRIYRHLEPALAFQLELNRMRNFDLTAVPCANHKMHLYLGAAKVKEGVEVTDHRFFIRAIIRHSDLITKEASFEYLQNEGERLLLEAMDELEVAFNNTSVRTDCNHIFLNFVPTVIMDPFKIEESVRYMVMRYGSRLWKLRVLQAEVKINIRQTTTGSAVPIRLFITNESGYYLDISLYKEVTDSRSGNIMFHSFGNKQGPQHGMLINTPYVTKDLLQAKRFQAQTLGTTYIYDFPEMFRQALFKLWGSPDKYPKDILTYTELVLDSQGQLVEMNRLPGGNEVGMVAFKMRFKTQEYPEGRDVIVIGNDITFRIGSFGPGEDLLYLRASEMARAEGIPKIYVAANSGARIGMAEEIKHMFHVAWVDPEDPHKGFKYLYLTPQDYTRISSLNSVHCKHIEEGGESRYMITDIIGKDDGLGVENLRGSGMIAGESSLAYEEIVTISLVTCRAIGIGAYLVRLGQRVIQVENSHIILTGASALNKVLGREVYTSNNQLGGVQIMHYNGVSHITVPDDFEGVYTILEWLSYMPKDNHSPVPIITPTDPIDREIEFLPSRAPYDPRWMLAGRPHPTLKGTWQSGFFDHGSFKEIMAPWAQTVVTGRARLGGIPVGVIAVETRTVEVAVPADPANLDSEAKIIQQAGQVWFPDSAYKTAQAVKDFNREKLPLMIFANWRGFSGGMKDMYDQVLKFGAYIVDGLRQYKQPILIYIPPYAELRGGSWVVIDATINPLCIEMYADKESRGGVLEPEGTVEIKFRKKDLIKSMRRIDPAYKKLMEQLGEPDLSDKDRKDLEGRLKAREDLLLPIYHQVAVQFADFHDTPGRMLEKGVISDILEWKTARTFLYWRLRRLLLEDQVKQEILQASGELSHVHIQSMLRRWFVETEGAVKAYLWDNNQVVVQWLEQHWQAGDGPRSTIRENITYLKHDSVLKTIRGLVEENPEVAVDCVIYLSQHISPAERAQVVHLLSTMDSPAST

This assay has as its target human ACC2 (Homo sapiens (Human), UniProt O00763). Description: ACC2 assay (spectrophotometric 384 well assay, NADH-linked coupled lactate dehydrogenase/pyruvate kinase). The conditions noted are these: hACC2 construct lacking 128 N-terminal amino acids; 25° C., 340 nm, 15 minutes. It is filed as biochemical. As to the method:
Spectrophotometric 384 Well Assay
Malonyl CoA formation by acetyl CoA carboxylases is stoichometrically linked to the consumption of ATP. ACC2 activity is measured in a NADH-linked kinetic method measuring ADP generated during the ACC reaction using a coupled lactate dehydrogenase/pyruvate kinase reaction.
For biological testing, a human ACC2 construct which lacks the 128 amino acids at the N-terminus for increased solubility (nt 385-6966 in Genbank entry AJ575592) is cloned. The protein is then expressed in insect cells using a baculoviral expression system. Protein purification is performed by anion exchange.
All compounds are dissolved in dimethyl sulfoxide (DMSO) to a concentration of 10 mM.
Assay reactions are then carried out in 384-well plates, with hACC2 in an appropriate dilution and at final assay concentrations (f.c.) of 100 mM Tris (pH 7.5), 10 mM trisodium citrate, 25 mM KHCO3, 10 mM MgCl2, 0.5 mg/ml BSA, 3.75 mM reduced L-glutathione, 15 U/ml lactate dehydrogenase, 0.5 mM phosphoenolpyruvate, 15 U/ml pyruvate kinase, compounds at different concentrations at final DMSO concentrations of 1%.
The enzymatic reaction is then started by addition of a mixture of NADH, acetyl Coenzyme A (both 200 μM f.c.) and ATP (500 uM f.c.). The decrease of the optical density (slope S) is then determined at 25° C. at a wavelength of 340 nm over 15 minutes in a spectrophotometric reader.
Each assay microtiter plate contains wells with vehicle instead of compound as controls for the non-inhibited enzyme (100% CTL; ‘HIGH’) and wells without acetyl-CoA as controls for non-specific NADH degradation (0% CTL; ‘LOW’).
The slope S is used for calculation of % CTL=(S(compound)−S(‘LOW’))/(S(‘HIGH’)—S(‘LOW’))*100. Compounds will give values between 100% CTL (no inhibition) and 0% CTL (complete inhibition).
For IC50 value determination, the sample slope in the presence of the test compound after subtraction of the low controls (S(compound)−S(‘LOW’)) are used.
An IC50 value is derived from the compound slopes at different dosages after subtraction of the low controls (S(compound)−S(‘LOW’)) by non-linear regression curve fitting (equation y=(A+((B−A)/(1+((C/x)^D))))).
In the case of `CC(=O)N[C@@H](C)c1ccc(OC2CN(c3ncc(C4CC4)cn3)C2)cc1` [Example 5.1, (S)—N-(1-(4-(1-(5-Cyclopropylpyrimidin-2-yl)azetidin-3-yloxy)phenyl)ethyl)acetamide], it took 170 nM to reach half-maximal inhibition (IC50). The result for `CC(=O)N[C@@H](C)c1ccc(OC2CN(c3ncc(C)cn3)C2)cc1` [Example 5.2] reads 2180 nM; that for `CC(=O)N[C@@H](C)c1ccc(OC2CN(c3ncc(-c4ccc(F)cc4)cn3)C2)cc1` [Example 6.1], 90 nM.

In turn, `COc1cc(-c2cnc(N3CC(Oc4ccc([C@H](C)NC(C)=O)cc4)C3)nc2)ccn1` [Example 6.2] came in with an IC50 of 1740 nM. In the case of `CC(=O)NC(C)c1ccc(OC2CN(c3ncc(C4CC4)cn3)C2)cc1` (stereo not shown) [Example 6.3], the midpoint of inhibition, the IC50, lay at 150 nM. The result for `CC(=O)N[C@@H](C)c1ccc(OC2CN(c3cccc(OCC4CC4)c3)C2)cc1` [Example 7.1] reads 1440 nM; that for `CC(=O)N[C@@H](C)c1ccc(OC2CN(c3cccc(OCC4CC4(F)F)c3)C2)cc1` (stereo partly shown) [Example 7.2], 1250 nM.

Consider `CC(=O)N[C@@H](C)c1ccc(OC2CN(c3cccc(OC4CCCC4)c3)C2)cc1` [Example 7.3], for which the IC50 came to 780 nM. Take `CCCOc1ccc(N2CC(Oc3ccc([C@H](C)NC(=O)C4CC4)cc3)C2)c(OC)c1` [Example 8.1, (S)—N-(1-(4-(1-(2-Methoxy-4-propoxyphenyl)azetidin-3-yloxy)phenyl)ethyl)cyclopropanecarboxamide]: half-maximal inhibition (IC50) was put at 7700 nM. The result for `CCCOc1ccc(N2CC(Oc3ccc([C@H](C)NC(=O)CF)cc3)C2)c(OC)c1` [Example 8.2] reads 2370 nM. The result for `CCCOc1ccc(N2CC(Oc3ccc([C@H](C)NC(=O)c4cn[nH]c4)cc3)C2)c(OC)c1` [Example 8.3] reads 1090 nM; that for `CCCOc1ccc(N2CC(Oc3ccc([C@H](C)NC(=O)c4cncs4)cc3)C2)c(OC)c1` [Example 8.4], 430 nM. For the compound `C[C@H](NC(=O)c1cn[nH]c1)c1ccc(OC2CN(c3ncc(C4CC4)cn3)C2)cc1` [Example 8.5], the midpoint of inhibition, the IC50, lay at 160 nM. As to `C[C@H](NC(=O)CC#N)c1ccc(OC2CN(c3ncc(C4CC4)cn3)C2)cc1` [Example 8.6], the IC50 amounted to 1770 nM. Then `CCOc1ccc(N2CC(Oc3ccc([C@H](C)NC(=O)c4cn[nH]c4)cc3)C2)cc1` [Example 8.7], with 50 nM; and `CCOc1ccc(N2CC(Oc3ccc([C@H](C)NC(=O)CC#N)cc3)C2)cc1` [Example 8.8], with 430 nM.

As to `CCOc1ccc(N2CC(Oc3ccc([C@H](C)NC(=O)C4(C)CC4)cc3)C2)cc1` [Example 8.9], it took 1150 nM to reach half-maximal inhibition (IC50). Then `CCOc1ccc(N2CC(Oc3ccc([C@H](C)NC(=O)c4cnc(NC(=O)CO)s4)cc3)C2)cc1` [Example 8.10], with 370 nM. `CCOc1ccc(N2CC(Oc3ccc([C@H](C)NC(=O)c4cccc(NC(C)=O)c4)cc3)C2)cc1` [Example 8.11] registered an IC50 of 2840 nM. `CCOc1ccc(N2CC(Oc3ccc([C@H](C)NC(=O)C4(C#N)CC4)cc3)C2)cc1` [Example 8.12] gave an IC50 of 1000 nM. The compound `C=CCC(=O)N[C@@H](C)c1ccc(OC2CN(c3ccc(OCC)cc3)C2)cc1` [Example 8.13] returned an IC50 of 450 nM.

On to `CCOc1ccc(N2CC(Oc3ccc([C@H](C)NC(=O)c4ccnnc4)cc3)C2)cc1` [Example 8.14], for which the IC50 was determined as 2250 nM.

The compound `CCOc1ccc(N2CC(Oc3ccc([C@H](C)NC(=O)CC4CC4)cc3)C2)cc1` [Example 8.15] displayed a half-inhibitory concentration (IC50) of 1740 nM. The result for `CCOc1ccc(N2CC(Oc3ccc([C@H](C)NC(=O)C(C)C)cc3)C2)cc1` [Example 8.16] reads 700 nM; that for `CCOc1ccc(N2CC(Oc3ccc([C@H](C)NC(=O)CO)cc3)C2)cc1` [Example 8.17], 2790 nM; that for `CCOc1ccc(N2CC(Oc3ccc([C@H](C)NC(=O)CC(F)(F)F)cc3)C2)cc1` [Example 8.18], 740 nM.

For `CCOc1ccc(N2CC(Oc3ccc([C@H](C)NC(=O)C4CC(F)C4)cc3)C2)cc1` (stereo partly shown) [Example 8.19], the 50% inhibitory concentration (IC50) was determined as 690 nM.

In the case of `CCOc1ccc(N2CC(Oc3ccc([C@H](C)NC(=O)C4CCC4)cc3)C2)cc1` [Example 8.20], the IC50 came out at 480 nM.

The compound `CCOc1ccc(N2CC(Oc3ccc([C@H](C)NC(=O)C4(C(F)(F)F)CC4)cc3)C2)cc1` [Example 8.21] showed an IC50 of 300 nM.

`CCOc1ccc(N2CC(Oc3ccc([C@H](C)NC(=O)c4nc(C)sc4C)cc3)C2)cc1` [Example 8.22]: inhibition was half-maximal at 1870 nM (IC50).

For the compound `CCOc1ccc(N2CC(Oc3ccc([C@H](C)NC(=O)CN(C)C)cc3)C2)cc1` [Example 8.23], the IC50 is 5790 nM. The result for `CCOc1ccc(N2CC(Oc3ccc([C@H](C)NC(=O)Cc4cccnc4)cc3)C2)cc1` [Example 8.24] reads 3940 nM. The result for `CCOc1ccc(N2CC(Oc3ccc([C@H](C)NC(=O)c4ccnc(NC(C)=O)c4)cc3)C2)cc1` [Example 8.25] reads 530 nM. Regarding `CCOc1ccc(N2CC(Oc3ccc([C@H](C)NC(=O)CCOC)cc3)C2)cc1` [Example 8.26], half-maximal inhibition (IC50) required 2780 nM.

Regarding `CCOc1ccc(N2CC(Oc3ccc([C@H](C)NC(=O)C4CC(C)C4)cc3)C2)cc1` (stereo partly shown) [Example 8.27], half-maximal inhibition (IC50) was put at 760 nM. Compound `CCOc1ccc(N2CC(Oc3ccc([C@H](C)NC(=O)c4sc(NC(C)=O)nc4C)cc3)C2)cc1` [Example 8.28] showed an IC50 of 170 nM. With `CCOc1ccc(N2CC(Oc3ccc([C@H](C)NC(=O)CC)cc3)C2)cc1` [Example 8.29], the IC50 is 410 nM. The result for `CCOc1ccc(N2CC(Oc3ccc([C@H](C)NC(=O)CF)cc3)C2)cc1` [Example 8.30] reads 670 nM; that for `CCOc1ccc(N2CC(Oc3ccc([C@H](C)NC(=O)c4ccno4)cc3)C2)cc1` [Example 8.31], 1090 nM. In the case of `CCOc1ccc(N2CC(Oc3ccc([C@H](C)NC(=O)c4cnc(NC(C)=O)s4)cc3)C2)cc1` [Example 8.32], the IC50 was found to be 550 nM. The result for `CCOc1ccc(N2CC(Oc3ccc([C@H](C)NC(=O)c4cnco4)cc3)C2)cc1` [Example 8.33] reads 190 nM; that for `CCOc1ccc(N2CC(Oc3ccc([C@H](C)NC(=O)c4ccns4)cc3)C2)cc1` [Example 8.34], 810 nM; that for `CCOc1ccc(N2CC(Oc3ccc([C@H](C)NC(=O)c4csc(NC(C)=O)n4)cc3)C2)cc1` [Example 8.35], 3160 nM. The result for `CCOc1ccc(N2CC(Oc3ccc([C@H](C)NC(=O)C(C)(C)OC)cc3)C2)cc1` [Example 8.36] reads 3040 nM; that for `CCOc1ccc(N2CC(Oc3ccc([C@H](C)NC(=O)c4ccc(C)o4)cc3)C2)cc1` [Example 8.37], 2060 nM; that for `CCOc1ccc(N2CC(Oc3ccc([C@H](C)NC(=O)C4CNC(=O)C4)cc3)C2)cc1` (stereo partly shown) [Example 8.39], 5200 nM. In the case of `CCOc1ccc(N2CC(Oc3ccc([C@H](C)NC(=O)C4CC=CC4)cc3)C2)cc1` [Example 8.40], the concentration for half-maximal inhibition (IC50) was 350 nM. Then `CCOc1ccc(N2CC(Oc3ccc([C@H](C)NC(=O)c4cncs4)cc3)C2)cc1` [Example 8.41], with 510 nM.

The compound `CCCC(=O)N[C@@H](C)c1ccc(OC2CN(c3ccc(OCC)cc3)C2)cc1` [Example 8.42] had an IC50 of 1690 nM.

The compound `CCOc1ccc(N2CC(Oc3ccc([C@H](C)NC(=O)CCCNC(C)=O)cc3)C2)cc1` [Example 8.43] had an IC50 of 2340 nM. Take `CCOc1ccc(N2CC(Oc3ccc([C@H](C)NC(=O)C4CC(OC)C4)cc3)C2)cc1` (stereo partly shown) [Example 8.44]: the 50% inhibitory concentration (IC50) stood at 930 nM. The result for `CCOc1ccc(N2CC(Oc3ccc([C@H](C)NC(=O)c4cccnc4)cc3)C2)cc1` [Example 8.45] reads 2310 nM; that for `CCOc1ccc(N2CC(Oc3ccc([C@H](C)NC(=O)C4CCOC4)cc3)C2)cc1` (stereo partly shown) [Example 8.46], 1190 nM; that for `CCOc1ccc(N2CC(Oc3ccc([C@H](C)NC(=O)COC)cc3)C2)cc1` [Example 8.47], 1910 nM.

`CCC(=O)N[C@@H](C)c1ccc(OC2CN(c3ncc(C4CC4)cn3)C2)cc1` [Example 9, (S)—N-(1-(4-(1-(5-Cyclopropylpyrimidin-2-yl)azetidin-3-yloxy)phenyl)ethyl)-propionamide] came in with a half-inhibitory concentration (IC50) of 1100 nM. The result for `C[C@H](NC(=O)N(C)C)c1ccc(OC2CN(c3ncc(C4CC4)cn3)C2)cc1` [Example 10.1] reads 340 nM; that for `CCNC(=O)N[C@@H](C)c1ccc(OC2CN(c3ncc(C4CC4)cn3)C2)cc1` [Example 10.2], 1170 nM. Then `CCOc1ccc(N2CC(Oc3ccc([C@H](C)NC(=O)N(C)C)cc3)C2)cc1` [Example 10.3], with 670 nM.

The values are drawn from US8530460B2, “Azetidine derivatives” (Boehringer Ingelheim International GmbH, priority 2011, dated 2013).
